The results in this text go back to patent EP0620225B1, “Cephalosporin derivatives” (Basilea Pharmaceutica AG, priority 1993, dated 1994).

Counter-ions that a name gives are not always drawn.

The ED50 is the midpoint of the dose-response relation. A low value points to an effect at a small dose.

Assay [1] has as its system Pseudomonas aeruginosa BA. Put plainly: Efficacy against systemic infections (septicemia) in mice. Format: in vivo. The note with it: 96 h, sc (subcutaneous) 1, 3 and 5 h after challenge, survival day 4. In a few lines: (§1)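 Swiss albino mice (16–20 g) infected i.p. with 4–10× the 48-h LD50 of each strain; compound given p.o. or s.c. at 1 and 3 h post-challenge, plus 5 h for P. aeruginosa BA. Five mice per group; ED50 (mg/kg) by probit analysis of day-4 survival.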

For a further assay, the system named is Escherichia coli 25922. The description is as above. Format: in vivo. The note with it: 96 h, Escherichia coli 25922, po (orally) 1 and 3 h after challenge, survival day 4. The procedure, abridged:
as §1

Assay [2] relates to Streptococcus pyogenes 15. The assay is described as above. Format: in vivo. The following applies: 96 h, Streptococcus pyogenes 15, po (orally) 1 and 3 h after challenge, survival day 4. The procedure, abridged:
as §1

The subject of another assay is Str. pneumoniae 6301. Nature of the assay: MIC, agar dilution method in Mueller Hinton agar. Format: cell-based. The following applies: Streptococcus pneumoniae, 6301, read-out: Minimum Inhibiting Concentration Values. As for the experimental part: (§2) In vitro activity was determined by minimum inhibitory concentration in a microorganism spectum by the agar dilution method in Mueller Hinton agar.
Background: Agar dilution tests growth on a series of plates holding different concentrations.

A further assay deals with Staph. aureus ATCC 29213. Put plainly: MIC, agar dilution method in Mueller Hinton agar. The note with it: Staphylococcus aureus, ATCC29213, read-out: Minimum Inhibiting Concentration Values. The assay is classed as cell-based. As for the experimental part: as §2
The subject of another assay is Staph. aureus Smith. Put plainly: MIC, agar dilution method in Mueller Hinton agar. The assay is classed as cell-based. The following applies: Staphylococcus aureus, read-out: Minimum Inhibiting Concentration Values. As for the experimental part: as §2
Another assay has as its system E. coli ATCC 25922. Put plainly: MIC, agar dilution method in Mueller Hinton agar. The assay is classed as cell-based. The note with it: Escherichia coli, ATCC25922, read-out: Minimum Inhibiting Concentration Values. The method, then: as §2
In the next assay the test system is Str. pyogenes 4. Put plainly: MIC, agar dilution method in Mueller Hinton agar. The note with it: Streptococcus pyogenes, read-out: Minimum Inhibiting Concentration Values. The assay is classed as cell-based. The method, then:
as §2

Another assay has as its system Ps. aeruginosa 5712. Nature of the assay: MIC, agar dilution method in Mueller Hinton agar. The assay is classed as cell-based. The following applies: Pseudomonas aeruginosa, read-out: Minimum Inhibiting Concentration Values. The method, then: as §2
In a further assay the test system is E. coli TEM-1. Nature of the assay: MIC, agar dilution method in Mueller Hinton agar. The assay is classed as cell-based. The note with it: Escherichia coli, TEM1, read-out: Minimum Inhibiting Concentration Values. The method, then: as §2
In another assay the test system is Prot. vulgaris ATCC 6380. Put plainly: MIC, agar dilution method in Mueller Hinton agar. Format: cell-based. The following applies: Proteus vulgaris, ATCC6380, read-out: Minimum Inhibiting Concentration Values. The method, then:
as §2

Assay [3] relates to Ps. aeruginosa ATCC 27853. Put plainly: MIC, agar dilution method in Mueller Hinton agar. The following applies: Pseudomonas aeruginosa, ATCC27853, read-out: Minimum Inhibiting Concentration Values. Format: cell-based. The method, then: as §2

For `Nc1nc(/C(=N/OCC(=O)O)C(=O)N[C@@H]2C(=O)N3C(C(=O)O)=C(/C=C4\CCN(CC(F)(F)F)C4=O)CS[C@H]23)cs1` [A, [6R-[3(E),6α,7β(Z)]]-7-[[(2-Amino-4-thiazolyl)[(carboxy-methoxy)imino]-acetyl]amino]-3-[[1-(2,2,2-trifluoroethyl)-2-oxo-3-pyrrolidinylidene]-methyl]-8-oxo-5-thia-1-aza-bicyclo[4.2.0]oct-2-ene-2-carboxylic acid disodium salt], the ED50 in assay [1] was 12 mg/kg; in the assay on Escherichia coli 25922, below 0.1 mg/kg; in assay [2], above 0.8 mg/kg. Further, the MIC with Str. pneumoniae 6301 worked out at 0.0625 µg/mL; with Staph. aureus ATCC 29213, 16 µg/mL; with Staph. aureus Smith, 8 µg/mL; in the assay with E. coli ATCC 25922 it was 0.0625 µg/mL; in the assay on Str. pyogenes 4, 0.125 µg/mL; in the assay on Ps. aeruginosa 5712, 8 µg/mL. Moreover, the MIC was 0.0625 µg/mL in the assay with E. coli TEM-1, at most 0.0156 µg/mL in the assay with Prot. vulgaris ATCC 6380 and 8 µg/mL in [3].

Consider `Nc1nc(/C(=N/OCC(=O)O)C(=O)N[C@@H]2C(=O)N3C(C(=O)O)=C(/C=C4\CCN(CCF)C4=O)CS[C@H]23)cs1` [B, [6R-[3(E),6α,7β(Z)]]-7-[[(2-Amino-4-thiazolyl)[(carboxy-methoxy)imino]-acetyl]amino]-3-[[1-(2-fluoroethyl)-2-oxo-3-pyrrolidinylidene]methyl]-8-oxo-5-thia-1-azabicyclo[4.2.0]-oct-2-ene-2-carboxylic acid disodium salt], for which the ED50 is 3.5 mg/kg in [1], below 0.1 mg/kg with Escherichia coli 25922 and 0.5 mg/kg in assay [2]. The MIC in the assay with Str. pneumoniae 6301 amounted to 0.0313 µg/mL; in the assay on Staph. aureus ATCC 29213 it was 16 µg/mL; in the assay with Staph. aureus Smith, 8 µg/mL; with E. coli ATCC 25922, 0.0313 µg/mL; in the assay with Str. pyogenes 4, 0.125 µg/mL; in the assay on Ps. aeruginosa 5712, 4 µg/mL. For the same compound, the results for the MIC (with E. coli TEM-1; in the assay on Prot. vulgaris ATCC 6380; in [3]) were 0.0313 µg/mL, at most 0.0156 µg/mL and 4 µg/mL, respectively.
